Laboratory results as given in article PMC6368365, “Didehydro-Cortistatin A Inhibits HIV-1 by Specifically Binding to the Unstructured Basic Region of Tat” (mBio, 2019).

Key:
HIV-1 TAR = assay: ITC of dCA binding to TAR; settings: 25°C
Source text: FIG 6 dCA binding to Tat disrupts Tat-TAR interaction. (A) EMSA of full-length Tat with TAR in the presence of dCA. Raltegravir (Ralt.) and deleted bulge TAR (ΔTAR) were used as negative controls. Data are representative of n = 3 independent experiments. (B) EMSA of Tat’s basic domain with TAR in the presence of increasing concentrations of dCA to Tat’s basic peptide. Pep B is a peptide encompassing the basic domain of HIV Tat (^45ISYGRKKRRQRRRAP^59). Pep C (^69LSKQPASQPRGDPTG^83) and unlabeled or cold TAR (TARc) were used as negative controls. Neomycin, which binds to Tat and TAR, was used as a positive control. Ratios of compounds (or TARc) concentrations to peptide are shown. Data are representative of n = 3 independent experiments. […] Shown are ITC results from binding of dCA (left) or Tat peptide (right) to TAR at 25°C. […] Luciferase activity was determined relative to protein concentration (Bradford assay) (Fig. S9A). […] Statistical significance was determined using one-way ANOVA with post hoc Tukey’s test with 3 technical replicates. ns, not significant; ***, P < 0.0001. […]
Isothermal titration calorimetry. […] Each injection generated a heat burst curve (microcalories/second vs. seconds) and the area under each curve was determined by integration [using the origin version 7.0 software (Microcal, Inc.; Northampton, MA)] to obtain the measure of the heat associated with that injection.

HIV Tat HXB3 = molecular target: T1, HIV Tat HXB3 (Human immunodeficiency virus type 1 group M subtype B, UniProt P69697); assay: Isothermal titration calorimetry of dCA binding to Tat; parameters: species or system HIV-1
T1 construct: pTatC6H-1 (NIH AIDS Reagent Program) plasmid encoding C-terminal 6xHistidine Tat1-86 (HXB3, subtype B); made in house; host or cells: E. coli BL21 (plasmid pTatC6H-1, NIH AIDS Reagent Program)
T1 sequence (P69697 whole entry): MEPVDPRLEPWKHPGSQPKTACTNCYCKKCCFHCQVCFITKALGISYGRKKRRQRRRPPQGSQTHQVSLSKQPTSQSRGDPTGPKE
Source text: Next, we studied the direct interaction of Tat with dCA using ITC. After gradual titration of Tat with dCA in the ITC cell, the integrated heat data of the dCA-Tat interaction were collected (Fig. 1G). This ITC titration curve fitted well with a single-site binding process with a nonlinear least-squares regression, allowing the determination of the association constant (Ka) and entropy (ΔS) and enthalpy (ΔH) changes, as well as the average number of binding sites (N). We determined a 1:1 binding stoichiometry with a Ka of ∼(9.39 ± 1.7) × 10^6 M^−1 (dissociation constant [Kd] = 100 nM). Moreover, dCA binds to Tat at 25°C with a negative (favorable) enthalpy of −3.5 ± 0.1 kcal mol^−1 and positive (favorable) entropy of +20.0 ± 0.5 cal mol^−1 K^−1. The favorable values of ΔH and ΔS are consistent with the characteristics of a combination of van der Waals, hydrophobic, and electrostatic interactions in the binding process. The difference between Tat/dCA affinity (ITC, 100 nM) and dCA inhibitory activity in cell-based assays (0.6 to 2 nM) (Table 2) ([10]) could be the result of the nature of the Tat-TAR feedback loop that amplifies activity in vivo; especially since the amount of Tat in vivo after infection is very low ([24]).
A detailed protocol for ITC is provided in Text S1.
Isothermal titration calorimetry. The measurements were conducted at 25 °C on a Microcal VP-ITC (Microcal, Inc.; Northampton MA). Titrations of HIV Tat HXB3 and HIV-1 TAR with dCA (or peptide, ^46SYGRKKRRQRRRPPQ^60) were done by injecting 250 μL into an isothermal sample chamber containing 1.5 mL HIV Tat HXB3 or HIV-1 TAR solution that was 10 μM in strand. Each experiment of this type was accompanied by the corresponding control experiment in which peptide or dCA injected into a solution of buffer alone. The duration of each injection was 8 s and the delay between the injections was 300 s and 180 s, the initial delay prior to the first injection was 300 s. Each injection generated a heat burst curve (microcalories/second vs. seconds) and the area under each curve was determined by integration [using the origin version 7.0 software (Microcal, Inc.; Northampton, MA)] to obtain the measure of the heat associated with that injection.

## CN(C)C1CC23CCC4(O2)C(=CCC2(C)C(c5ccc6ccncc6c5)=CCC24)C=C3C(O)C1O (centres unmarked) [dCA, didehydro-cortistatin A]
HIV-1 TAR
  binding to TAR (ITC): does not bind to TAR
HIV Tat HXB3
  Kd: 100 nM
HIV Tat HXB3; ITC, 25°C
  enthalpy (ΔH): -3.5 ± 0.1 kcal/mol
  entropy (ΔS): +20.0 ± 0.5 cal mol^−1 K^−1
HIV Tat HXB3; ITC, 25°C, single-site fit
  association constant (Ka): (9.39 ± 1.7) × 10^6 M^−1
